The source made the active and inactive calls. The rule behind the calls is not given here.
System: Schistosoma mansoni
Test: In vitro activity screen on S. mansoni schistosomula at 10 uM. Compound-induced effects were assessed by quantifying larva motility and phenotype using Roboworm.
Type: functional, organism-based
Set-up: test concentration 10 uM, temperature 37 degree C, time incubation 72 h
Conditions: Puerto Rican

| Compound | In vitro activity |
| --- | --- |
| O=C(O)CC1CCN(c2nc(NCc3ccc4c(c3)OCO4)c3c4c(sc3n2)CCCC4)CC1 | inactive |
| CN(CCCCc1ccc(F)cc1)CCC(=O)c1ccc2[nH]c(=O)oc2c1 | inactive |
| CC1=C(C(=O)N2CCc3ccc(C(F)(F)F)cc3C2)C2(CCN(C3CCOC(C)C3)CC2)OC1=O (stereo unspecified) | inactive |
| COc1ccccc1-n1c(=S)[nH]c2scc(C)c2c1=O | inactive |
| CC1=C(C(=O)N2CCN(c3cccc(C(F)(F)F)c3)CC2)C2(CCN(CCc3ccccc3)CC2)OC1=O | inactive |
| CC1=C(C(=O)N2CCc3ncc(C(F)(F)F)cc3C2)C2(CCN(CC3CCOC3)CC2)OC1=O (stereo unspecified) | inactive |
| O=C(O)c1ccc(CCN2C(=O)CCN2CCC(O)Cc2cccc(Br)c2)cc1 (stereo unspecified) | inactive |
| Cc1c(O)nc(N)nc1-c1cc2ccccc2o1 | inactive |
| CC(c1cccc(-c2nnn[nH]2)c1)N(Cc1ccccc1)S(=O)(=O)c1ccc(Cl)cc1 (stereo unspecified) | inactive |
| CNC(=O)c1cc(Oc2ccc(NC(=O)Nc3cc(C(F)(F)F)ccc3-n3cncn3)cc2)ccn1 | inactive |
| Cc1csc(N2CCN(C(C)c3ccc4c(c3)OCO4)CC2)n1 (stereo unspecified) | inactive |
| CCCCC[C@H](O)/C=C/[C@H]1CCC(=O)N1CCc1ccc(C(=O)O)cc1 | inactive |
| COc1ccc(CNc2nc(-c3ccc(C(=O)O)nc3)nc3sc4c(c23)CCCC4)cc1Cl | inactive |
| CCCc1nn(C)c2c(=O)[nH]c(-c3cc(S(=O)(=O)Oc4cccnc4C)ccc3OCC)nc12 | inactive |
| COc1cc(C(=O)Nc2cn(Cc3ccc(Cl)c(Cl)c3)nn2)ccc1-n1cnc(C)c1 | inactive |
| CN(C)c1nc2c(s1)CCc1[nH]c(=O)c(C#N)cc1-2 | inactive |
| COc1ccc(OC)c(Nc2nc3ccccc3nc2NS(=O)(=O)Cc2cccnc2)c1 | inactive |
| CCOc1cc(-c2nc(-c3ccc(CN(C)CC(=O)O)cc3)no2)ccc1-c1ccccc1C | inactive |
| CCCc1nn(C)c2c(=O)[nH]c(-c3cc(S(=O)(=O)Oc4ccc(=O)n(C)n4)ccc3OCC)nc12 | inactive |
| O=C(O)c1cn(Cc2ccc(-n3cccn3)cc2)c2c(F)ccc(F)c2c1=O | inactive |
| O=C(O)c1cn(Cc2ccc(-c3ccccc3)cc2)c2ccccc2c1=O | inactive |
| CCOc1cc(CCC(=O)NC[C@H]2S[C@@H](c3ccc(C#Cc4ccccc4)cc3)N(c3cccc(C(N)=O)c3)C2=O)ccc1OC | inactive |

| Compound | In vitro activity |
| --- | --- |
| CC1=C(C(=O)N2CCc3ncc(C(F)(F)F)cc3C2)C2(CCN(C3CCc4ccccc43)CC2)OC1=O (stereo unspecified) | inactive |
| c1cnc(N2CCN(Cc3cncc(-c4ccsc4)c3)CC2)nc1 | inactive |
| CNC(=O)c1cc(Oc2ccc(NC(=O)Nc3cc(C(F)(F)F)ccc3-n3ccnc3)cc2)ccn1 | inactive |
| O=C(Nc1ccc(Oc2ccncc2)cc1)Nc1cc(C(F)(F)F)ccc1-n1cncn1 | inactive |
| COc1ccc(N2C[C@H](CN3CCC(O)(c4ccc5c(c4)OCO5)CC3)OC2=O)cc1 | inactive |
| COCc1cc(-c2nc(-c3ccc(C(=O)O)c(F)c3)no2)ccc1-c1cc(F)ccc1OC | inactive |
| COc1ccc(C(=O)N2CCC(C)(C)c3cc(C4=NNC(=O)SC4C)ccc32)cc1OC (stereo unspecified) | inactive |
| COc1cc(C(=O)NCc2cn(Cc3ccc(Cl)c(Cl)c3)nn2)ccc1-c1ccnc(C)c1 | inactive |
| O=S(=O)(Nc1ccc2nsnc2c1)c1ccccc1-c1ccccc1 | inactive |
| CCCc1cc(C)c(C(=O)N=C(N)N)cc1S(C)(=O)=O | inactive |
| COc1cc(OC)cc(-c2cn3cc(C(=O)NCCc4ccc(OC)cc4OC)ccc3n2)c1 | inactive |
| CCN1CCC2(CC1)OC(=O)C(C)=C2C(=O)N1C[C@@H]2C[C@H]1CN2c1cc(C(F)(F)F)ccn1 | inactive |
| O=C(O)c1ccc(-c2nc(NCc3ccc4c(c3)OCO4)c3cc(Cl)sc3n2)cc1 | inactive |
| CCOc1cc(CCNC(=O)C[C@H]2S[C@@H](c3ccc(C#Cc4ccccc4)cc3)N(c3cccc(C(N)=O)c3)C2=O)ccc1O | inactive |
| CCCCCCN(Cc1ccc(C#Cc2ccc(CCCC)cc2)cc1)c1ccc(F)c(C(=O)O)c1 | inactive |
| COCc1cc(-c2nc(-c3ccc(CN(C)CCC(=O)O)cc3)no2)ccc1-c1ccccc1C | inactive |
| COc1cc(C(=O)Nc2cn(Cc3ccc4ccccc4c3)nn2)ccc1-n1cnc(C)c1 | inactive |
| CCCCc1nc2ccn(Cc3ccccc3C(=O)OCC)c(=O)c2n1Cc1ccc(-c2ccccc2-c2nn[nH]n2)cc1 | inactive |
| CC1=C(C(=O)N2CCc3ccc(C(F)(F)F)cc3C2)C2(CCN(C3CCOC(C)(C)C3)CC2)OC1=O (stereo unspecified) | inactive |
| COc1cc(SCCO)ccc1-c1nc2ccncc2[nH]1 | inactive |
| COc1ccc(OC)c(-c2cn3cc(C(=O)NCCc4cc(OC)c5c(c4OC)OCO5)sc3n2)c1 | inactive |
| COc1ccc(C(=O)N2CCCc3cc(C4=NNC(=O)SC4C)ccc32)cc1OC (stereo unspecified) | inactive |

| Compound | In vitro activity |
| --- | --- |
| CCNC1=N[C@@H]2[C@@H](O)[C@H](O)[C@@H](Cn3cc(COc4ccc(Cl)cc4)nn3)O[C@@H]2S1 | inactive |
| O=C(O)[C@H]1CC[C@H](c2nc(NCc3ccc4c(c3)OCO4)c3c4c(sc3n2)CCCC4)CC1 | inactive |
| CC1SC(=O)NN=C1c1ccc2c(c1)CCCN2 (stereo unspecified) | inactive |
| CC(C)(Sc1nc(-c2ccccc2)c(-c2ccccc2)s1)C(=O)O | inactive |
| Cc1cc(-c2cccs2)c(S(C)(=O)=O)cc1C(=O)N=C(N)N | inactive |
| COc1ccc(CNc2nc(-c3ccc(CC(=O)O)cc3)nc3sc4c(c23)CCCC4)cc1Cl | inactive |
| CCCCc1nc2ccn(Cc3ccccc3)c(=O)c2n1Cc1ccc(-c2ccccc2-c2nn[nH]n2)cc1 | inactive |
| CCOC(=O)CC1=NN(c2ccc(C(=O)O)cc2)C(=O)/C1=C\Nc1ccccc1CC | inactive |
| CCNC1=N[C@@H]2[C@@H](O)[C@H](O)[C@@H](Cn3cc(COc4cccc(Br)c4)nn3)O[C@@H]2S1 | inactive |
| Cc1cc(C(C)C)c(S(C)(=O)=O)cc1C(=O)N=C(N)N | inactive |
| COc1ccc(OCC(=O)O)cc1-c1cn2cc(C(=O)NCCc3c(OC)cc(Cl)cc3OC)sc2n1 | inactive |
| COc1ccc(OC)c(CCNC(=O)c2cn3cc(-c4cc(OC)ccc4OC)nc3s2)c1 | inactive |
| CC1=C(C(=O)N2CCc3ccc(C(F)(F)F)cc3C2)C2(CCN(C3CCC(O)CC3)CC2)OC1=O (stereo unspecified) | inactive |
| O=C(C1CCCCC1)N1CC(=O)N2CCc3ccccc3[C@H]2C1 | inactive |
| CC1=C(C(=O)N2Cc3cc(C(F)(F)F)ccc3C3(CC3)C2)C2(CCN(C3CCOCC3)CC2)OC1=O | inactive |
| COc1ccc(CNc2nc(-c3ccc(S(=O)(=O)O)cc3)nc3sc4c(c23)CCCC4)cc1Cl | inactive |
| Cc1ccccc1-c1ccc(-c2nc(-c3ccc(CN(C)CCC(=O)O)cc3)no2)cc1C(F)(F)F | inactive |
| CCCc1nn(C)c2c(=O)[nH]c(-c3cc(S(=O)(=O)Oc4cccnc4)ccc3OCC)nc12 | inactive |
| O=C(O)c1ccc(-c2nc(NCc3ccc4c(c3)OCO4)c3c(n2)sc2ccccc23)cc1 | inactive |
| CCCCc1nc2ccn(CC(=O)N(C)C)c(=O)c2n1Cc1ccc(-c2ccccc2-c2nnn[nH]2)cc1 | inactive |
| CCN(CCC(=O)O)Cc1cccc(-c2noc(-c3ccc(-c4ccccc4C)c(COC)c3)n2)c1 | inactive |
| O=C(O)Cc1ccc(-c2nc(NCc3ccc4c(c3)OCO4)c3c4c(sc3n2)CCCC4)cc1 | inactive |

| Compound | In vitro activity |
| --- | --- |
| CCCSc1cc(C)c(C(=O)N=C(N)N)cc1S(C)(=O)=O | inactive |
| COc1ccc(C2=NN(C(=O)c3ccc(NC(=O)c4ccncc4)cc3)CCC2)cc1OC1CCCC1 | inactive |
| O=C(c1cc2c(s1)CC(C(=O)O)C2)c1ccccc1Cl (stereo unspecified) | inactive |
| C[C@H]1CCCCN1c1ccc(-c2nc(-c3cccc(CN(C)CC(=O)O)c3)no2)cc1C(F)(F)F | inactive |
| CC1=C(C(=O)N2CCc3ncc(C(F)(F)F)cc3C2)C2(CCN(C3CCCCC3)CC2)OC1=O | inactive |
| Cc1cc(Oc2ccccc2)c(S(C)(=O)=O)cc1C(=O)N=C(N)N | inactive |
| Cc1ccc(CNc2nc(N3CCC(C(=O)O)CC3)nc3sc4c(c23)CCCC4)cc1 | inactive |
| C=CCSc1ccc(-c2nc3ccncc3[nH]2)c(OC)c1 | inactive |
| Cn1nc(O[C@@H]2c3cc(C#N)ccc3OC(C)(C)[C@H]2O)ccc1=O | inactive |
| CS(=O)(=O)c1cccc(-c2ccc(Cn3cc(C(=O)O)c(=O)c4cccc(F)c43)cn2)c1 | inactive |
| Cc1sc2nc(N3CCC(C(=O)O)CC3)nc(NCc3ccc4c(c3)OCO4)c2c1Cl | inactive |
| CCCCCCN(Cc1ccc(C#Cc2ccc(CCCC)cc2)cc1)c1ccc(O)c(C(=O)O)c1 | inactive |
| Cc1cc(Cl)c(-n2cccc2)cc1C(=O)N=C(N)N | inactive |
| CCN1CCC2(CC1)OC(=O)C(C)=C2C(=O)N1C[C@@H]2C[C@H]1CN2c1nccc(C(F)(F)F)n1 | inactive |
| O=C(O)c1ccc(-c2nc(NCc3ccccc3)c3c4c(sc3n2)CCCC4)cc1 | inactive |
| CCCc1nn(C)c2c(=O)[nH]c(-c3cc(S(=O)(=O)n4ccc(O)cc4=O)ccc3OCC)nc12 | inactive |
| COc1ccc(OCC(N)=O)cc1-c1cn2cc(C(=O)NCCc3c(OC)cccc3OC)sc2n1 | inactive |
| CCc1cc(C(=O)NCc2ccc3c(c2)OCO3)c(NC(=O)c2ccc(C(=O)O)cc2)s1 | inactive |
| COCc1cc(-c2nc(-c3cccc(CN(C)CC(=O)O)c3)no2)ccc1-c1cccc(F)c1C | inactive |
| COc1cc(OC)c(CCNC(=O)c2cn3cc(-c4cc(OCC(N)=O)ccc4OC)nc3s2)c(OC)c1 | inactive |

Source: ChEMBL document CHEMBL5441142, “Probing the Merck KGaA Open Global health library for novel starting points for anti-schistosomal drug discovery” (2024)
